In patent publication US6461997B1, “Triazole sulfones having herbicidal activity” (Monsanto Technology LLC, priority 1999, dated 2002):

Legend:
[1] = tested on: AVEFA (wild oat); test: Pre-plant incorporated (PPI) herbicidal activity, cool season; type: in vivo, Avena fatua; details: weed, PPI application
Method in brief: (§1)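 Pots are filled with topsoil, seeded, and topped with cover soil carrying the sprayed, mixed-in compound. After 0.64 cm overhead irrigation, growth proceeds at 30/21° C or 18/13° C day/night with mist or subirrigation. Scoring is percent inhibition relative to untreated controls about two weeks on.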

[2] = tested on: PANMI (wild proso millet); test: Pre-emergence herbicidal activity, warm season; type: in vivo, Panicum miliaceum; details: GR80 = lowest tested rate (300, 100, 30, 10 g/ha) with 80% or greater inhibition; approx. 14 days after treating; 30/21° C.
Method in brief: (§2)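 GR80 values derive from percent inhibition relative to untreated plants, read roughly 14 days after sowing and pre-emergence soil-surface treatment (compound in 50:50 acetone/water; rates typically 10, 30, 100, 300 g/ha). Warm-season weeds grew at 30/21° C day/night, cool-season ones at 18/13° C; an asterisk marks activity without reaching 80% at the highest rate.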

[3] = tested on: LOLMG (annual ryegrass); test: Pre-plant incorporated (PPI) herbicidal activity, cool season; type: in vivo, Lolium multiflorum; details: weed, PPI application
Method in brief: as §1

[4] = tested on: SASKR (russian thistle); test: as above; type: in vivo, Salsola kali; details: weed, PPI application
Method in brief: as §1

[5] = tested on: corn (ZEAMX); test: Selectivity test, PPI, warm season crop; type: in vivo, Zea mays; details: PPI application
Method in brief: (§3)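 Percent inhibition relative to untreated controls, assessed roughly 14 days post-planting. Seeds were covered with a soil layer into which solvent-borne compound had been sprayed and mixed. Plants were then grown at 30/21° C. (warm season) or 18/13° C. (cool season) day/night regimes.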

[6] = tested on: STEME (common chickweed); test: Pre-emergence herbicidal activity, cool season; type: in vivo, Stellaria media; details: lowest tested rate with 80% or greater inhibition; rates 300, 100, 30, 10 g/ha; about 14 days
Method in brief: as §2

[7] = tested on: AGSST (creeping bentgrass); test: Pre-plant incorporated (PPI) herbicidal activity, cool season; type: in vivo, Agrostis stolonifera; details: weed, PPI application
Method in brief: as §1

[8] = tested on: SOLNI (black nightshade); test: Pre-emergence herbicidal activity, warm season; type: in vivo, Solanum nigrum; details: GR80 = lowest tested rate (300, 100, 30, 10 g/ha) with 80% or greater inhibition; approx. 14 days after treating; 30/21° C.
Method in brief: as §2

[9] = tested on: soybean (GLYMX); test: Selectivity test, PPI, warm season crop; type: in vivo, Glycine max; details: PPI application
Method in brief: as §3

[10] = tested on: CIRAR (canada thistle (seedling)); test: Pre-emergence herbicidal activity, warm season; type: in vivo, Cirsium arvense; details: GR80 = lowest tested rate (300, 100, 30, 10 g/ha) with 80% or greater inhibition; approx. 14 days after treating; 30/21° C.
Method in brief: as §2

[11] = tested on: DIGSA (large crabgrass); test: Pre-plant incorporated (PPI) herbicidal activity, warm season; type: in vivo, Digitaria sanguinalis; details: PPI application
Method in brief: as §1

Row | Compound | Percent inhibition AVEFA ([1]; 30 g/ha) [%] | Percent inhibition AVEFA ([1]; 100 g/ha) [%] | Percent inhibition AVEFA ([1]; 300 g/ha) [%] | Percent inhibition AVEFA ([1]; 900 g/ha) [%] | Pre-emergence activity (GR80) PANMI [2] [g/ha] | Percent inhibition LOLMG ([3]; 30 g/ha) [%] | Percent inhibition LOLMG ([3]; 100 g/ha) [%] | Percent inhibition LOLMG ([3]; 300 g/ha) [%] | Percent inhibition LOLMG ([3]; 900 g/ha) [%] | Percent inhibition SASKR ([4]; 30 g/ha) [%] | Percent inhibition SASKR ([4]; 100 g/ha) [%] | Percent inhibition SASKR ([4]; 300 g/ha) [%] | Percent inhibition SASKR ([4]; 900 g/ha) [%] | Percent inhibition ZEAMX ([5]; 30 g/ha) [%] | Percent inhibition ZEAMX ([5]; 100 g/ha) [%] | Percent inhibition ZEAMX ([5]; 300 g/ha) [%] | Percent inhibition ZEAMX ([5]; 900 g/ha) [%] | Pre-emergence activity GR80, STEME [6] [g/ha] | Percent inhibition AGSST ([7]; 30 g/ha) [%] | Percent inhibition AGSST ([7]; 100 g/ha) [%] | further results
1 | CCN(CC)C(=O)n1cnc(S(=O)(=O)C(F)(F)F)n1 [Example 2] | 0 | 10 | 20 | 50 | 30 | 40 | 99 | 100 | 100 | 50 | 80 | 85 | 100 | 5 | 10 | 50 | 80 | 10 | 100 | 99 | Percent inhibition AGSST ([7]; 300 g/ha): 100%; Percent inhibition AGSST ([7]; 900 g/ha): 100%; Pre-emergence activity (GR80) SOLNI [8]: 300 g/ha; Percent inhibition GLYMX ([9]; 30 g/ha): 0%; Percent inhibition GLYMX ([9]; 100 g/ha): 0%; Percent inhibition GLYMX ([9]; 300 g/ha): 10%; Percent inhibition GLYMX ([9]; 900 g/ha): 20%; Pre-emergence activity (GR80) CIRAR [10]: 300 g/ha; Percent inhibition DIGSA ([11]; 30 g/ha): 85%; Percent inhibition DIGSA ([11]; 100 g/ha): 99%; Percent inhibition DIGSA ([11]; 300 g/ha): 90%; Percent inhibition DIGSA ([11]; 900 g/ha): 100%
2 | CCN(CC)C(=O)n1cnc(S(=O)(=O)C(F)(F)Cl)n1 [Example 3] | 20 | 40 | 100 | 80 | 30 | 40 | 100 | 100 | 100 | 80 | 80 | 100 | 100 | 5 | 10 | 30 | 55 | 30 | 100 | 100 | Percent inhibition AGSST ([7]; 300 g/ha): 100%; Percent inhibition AGSST ([7]; 900 g/ha): 100%; Pre-emergence activity (GR80) SOLNI [8]: 100 g/ha; Percent inhibition GLYMX ([9]; 30 g/ha): 0%; Percent inhibition GLYMX ([9]; 100 g/ha): 0%; Percent inhibition GLYMX ([9]; 300 g/ha): 0%; Percent inhibition GLYMX ([9]; 900 g/ha): 15%; Pre-emergence activity (GR80) CIRAR [10]: 30 g/ha; Percent inhibition DIGSA ([11]; 30 g/ha): 70%; Percent inhibition DIGSA ([11]; 100 g/ha): 100%; Percent inhibition DIGSA ([11]; 300 g/ha): 100%; Percent inhibition DIGSA ([11]; 900 g/ha): 100%
3 | CCN(CC)C(=O)n1cnc(S(=O)(=O)C(F)(F)C(F)(F)Br)n1 [Example 4] | 10 | 10 | 50 | 100 | 100 | 80 | 100 | 100 | 100 | 75 | 90 | 99 | 100 | 0 | 5 | 40 | 50 | 10 | 100 | 100 | Percent inhibition AGSST ([7]; 300 g/ha): 100%; Percent inhibition AGSST ([7]; 900 g/ha): 100%; Pre-emergence activity (GR80) SOLNI [8]: 300 g/ha; Percent inhibition GLYMX ([9]; 30 g/ha): 0%; Percent inhibition GLYMX ([9]; 100 g/ha): 0%; Percent inhibition GLYMX ([9]; 300 g/ha): 0%; Percent inhibition GLYMX ([9]; 900 g/ha): 10%; Pre-emergence activity (GR80) CIRAR [10]: 30 g/ha; Percent inhibition DIGSA ([11]; 30 g/ha): 85%; Percent inhibition DIGSA ([11]; 100 g/ha): 90%; Percent inhibition DIGSA ([11]; 300 g/ha): 100%; Percent inhibition DIGSA ([11]; 900 g/ha): 100%
